Source: paper PMC9644403, “L-type Amino Acid Transporter 1 Utilizing Ferulic Acid Derivatives Show Increased Drug Delivery in the Mouse Pancreas Along with Decreased Lipid Peroxidation and Prostaglandin Production” (Molecular Pharmaceutics, 2022)
Read-outs that look alike come from different tables or passages of the source.

Legend:
[1] = In vivo pharmacokinetics in mouse pancreas, liver and kidney after i.p. bolus; conditions: 25 μmol/kg i.p.; for Cmax kidney / Cmax liver / Cmax pancreas / AUCtotal kidney / AUCtotal liver / AUCtotal pancreas / Kp / half-life / Kp,uu (unbound tissue-to-plasma AUC ratio) / Tmax / AUCu, kidney / AUCu, liver / AUCu, pancreas / Cmax, u kidney / Cmax, u liver / Cmax, u pancreas: mice; for AUCtotal kidney / AUCtotal liver / AUCtotal pancreas: n = 3; for pancreas AUC, times higher in comparison to the original FA: mouse pancreas; for Kp / half-life / Kp,uu (unbound tissue-to-plasma AUC ratio) / Tmax: mouse, ip, 25 umol/kg; for Kp: tissue/plasma partition coefficient (eq 2); for half-life: elimination half-life; for AUCu, kidney / AUCu, liver / AUCu, pancreas: unbound (eq 3); for Cmax, u kidney / Cmax, u liver / Cmax, u pancreas: unbound
Method: The pharmacokinetic study of FA, D1, and D2 was performed as previously described,[17] in which the pharmacokinetic parameters for the plasma and brain have been reported. Briefly, the studied compounds were dissolved in a vehicle containing 0.9% (w/v) NaCl in water, and a dose of 25 μmol/kg of the FA, D1, or D2 (n = 3 per compound at each time point) was administered as a bolus intraperitoneal (i.p.) injection for mice. The mice were anesthetized using a mixture of ketamine (140 mg/kg) and xylazine (8 mg/kg) and sacrificed by decapitation at selected time points between 10 and 360 min. The kidney, liver, and pancreas were rapidly collected, snap-frozen on dry ice, and stored at −80 °C until analyzed.
The frozen tissues were weighed and homogenized with ultrapure water (1:3 w/v) by sonicating twice for 5 s with the SoniPrep 150 Plus disintegrator (MSE Ltd., London, UK). The proteins were precipitated by diluting homogenate 1:3 (v/v) with acetonitrile containing the internal standards—chlorzoxazone for FA and diclofenac for derivatives. Samples were then centrifuged at 14 000 × g for 10 min at 4 °C. Supernatants were collected and diluted further 1:1 with ultrapure water and transferred into HPLC vials for the analysis by liquid chromatography-tandem mass spectrometry (LC–MS/MS).
Drug concentrations were analyzed using the LC–MS/MS method described previously,[17] with minor changes. Briefly, the analysis was carried out with an Agilent 1200 Series Rapid Resolution LC System with an Agilent Zorbax XBD-C18 rapid resolution high-throughput (RRHT) column (50 mm × 4.6 mm, 1.8 μm) and an Agilent 6410 triple quadrupole mass spectrometer equipped with an electrospray ionization source (Agilent Technologies, Palo Alto, CA, USA). The LC eluents were water (eluent A) and acetonitrile (eluent B), both containing 0.1% (v/v) formic acid. FA was separated with the following gradient: 0–1 min: 5% B, 1–2 min: 5% B → 90%, 2–4 min: 90% B, 4–4.1 min: 90% B → 5%, and 4.1–7 min: 5% B. For the derivatives, the gradient was as follows: 0–1 min: 10% B, 1–2 min: 10% B → 90%, 2–5 min: 90% B, 5–5.1 min: 90% B → 10%, and 5.1–8 min: 10% B. In both methods, the LC flow rate was 0.3 mL/min, the column temperature was set to 40 °C, and the sample injection volume was 5 μL.
The LC–MS/MS data acquisition for the FA was performed in a negative ion mode with the following conditions: drying gas flow 6.5 l/min with the temperature of 300 °C, nebulizer gas pressure of 20 psi, and capillary voltage of 4 000 V. MRM transitions were 193 → 149 for FA and 168 → 132 for chlorzoxazone. Fragmentor voltages were 100 and 120 V, respectively, and the collision energy was 20 V for both. For D1 and D2, the analysis was performed in a positive ion mode with the following conditions: drying gas flow of 6.5 l/min with the temperature of 300 °C, nebulizer gas pressure of 20 psi, and capillary voltage of 3 000 V. MRM transitions were 371 → 176.8 for D1, 357 → 310.9 for D2, and 296 → 250 for the diclofenac. The fragmentor voltages were 60, 40, and 100 V, and the collision energies were 16, 8, and 10 V, respectively. The data acquisition software was Agilent MassHunter Workstation software (version B.03.01), whereas Quantitative Analysis (B.09.00) software was used for data processing and analysis. The lower limit of quantification for the FA was 0.05 nmol/g and was 0.01 nmol/g for derivatives. The methods were linear, selective, accurate, and precise in the calibration range of 0.05–300 nmol/g for FA and 0.01–300 nmol/g for derivatives.
The time–concentration profiles for studied drugs were calculated using GraphPad Prism v. 5.03 software (GraphPad Software, San Diego, CA, USA). The area under curve (AUC) was calculated using the linear trapezoidal method, providing simultaneously the numeric pharmacokinetic parameters, such as tmax and Cmax. The half-life of elimination (t1/2β) was calculated from a logarithmic slope based on at least the last three detected timepoints. […]

HUVECs = test: HUVEC morphology, phase-contrast microscopy; format: cell-based, human; conditions: 24 h incubation
Method: As a third in vitro toxicity study in the human blood circulation system, the effects of FA, D1, and D2 on the viability of human umbilical vein endothelial cells (HUVECs; RRID CVCL_2959; Lonza, Italy; Cat. no. CC-2517) were determined using the WST-1 assay (Takara, Takara Bio Europe, Europe, Saint-Germain-en-Laye, France), according to the previously published protocol.[32] Briefly, the cells were cultured according to the manufacturer’s guidelines with the following ingredients: EGM-2-medium + bullet kit (Lonza, Clonetics, Italy), accutase (Sigma-Aldrich, Germany), and HEPES-buffered saline solution (Lonza, Basel, Switzerland). For the assay, the cells were seeded at the density of 7 500 HUVECs per well on 96-well plates and cultured for 24 h to obtain 70% confluency. Subsequently, the cells were treated with studied compounds in multiplicate (n = 6–8) at the concentration of 0.1–100 μM in the growth medium for 24 h (37 °C, 5% CO2). Cells with untreated growth medium represented 100% viability, whereas cells treated with medium containing 0.5% (v/v) methanol served as a negative control for drug solvent. After treating cells for 24 h, medium was removed, the cells were washed with the culture medium (100 μl/well), and 100 μL of WST-1 reagent dissolved in culture medium was added into each well. The plates were incubated at 37 °C with 5% CO2 for 2 h, after which absorbance values were measured at the 450 nm wavelength using a microplate reader (iMARK, Bio-Rad). Additionally, the effects of treatments on HUVEC morphology were examined microscopically using a phase-contrast Opta-Tech inverted microscope equipped with OptaView 7 software (Opta-Tech, Warsaw, Poland) for image analysis.

[2] = mice, cited from earlier work; for AUCtotal plasma of released FA / AUCu, plasma of released FA / Cmax, u plasma of released FA: FA released from the dosed derivative; for AUCtotal plasma of released FA / AUCu, plasma of released FA / Cmax, u plasma of released FA / tmax plasma / Cmax / AUCu, plasma / Cmax, u plasma: 25 μmol/kg i.p.; for AUCtotal plasma: 25 μmol/kg i.p. bolus; for peak concentration in plasma: after a high bolus dose (25 μmol/kg i.p.); for Cmax: read-out: Cmax plasma; for AUCu, plasma / Cmax, u plasma: unbound
[3] = kidney, read-out: t1/2β, kidney
[4] = kidney, read-out: AUCu, kidney/AUCu plasma
[5] = kidney, read-out: tmax kidney (converted)
[6] = liver, read-out: AUCu, liver/AUCu plasma
[7] = liver, read-out: tmax liver (converted)
[8] = pancreas, read-out: Kp, pancreas
[9] = pancreas, read-out: t1/2β, pancreas
[10] = pancreas, read-out: AUCu, pancreas/AUCu plasma
[11] = pancreas, read-out: tmax pancreas (converted)

Row | Cmax kidney [1] [nmol/g] | Cmax liver [1] [nmol/g] | Cmax pancreas [1] [nmol/g] | AUCtotal kidney [1] | AUCtotal liver [1] | AUCtotal pancreas [1] | Kp ([1]; kidney, read-out: Kp, kidney) | half-life [1, 3] [min] | Kp,uu (unbound tissue-to-plasma AUC ratio) [1, 4] | Tmax [1, 5] [min] | Kp ([1]; liver, read-out: Kp, liver) | half-life ([1]; liver, read-out: t1/2β, liver) [min] | Kp,uu (unbound tissue-to-plasma AUC ratio) [1, 6] | Tmax [1, 7] [min] | Kp [1, 8] | Kp,uu (unbound tissue-to-plasma AUC ratio) [1, 10] | Tmax [1, 11] [min] | AUCu, kidney [1] | AUCu, liver [1] [nmol·min/g] | AUCu, pancreas [1] | SMILES | also measured
1 | 20.4 | 44.3 | 168 | 415 nmol·min/g | 1 769 nmol/g × min | 5 182 nmol/g × min | 0.4 | 11.8 | 0.74 | 10 | 1.7 | 11.7 | 2.9 | 10 | 4.97 | 5.54 | 10 | 194 nmol·min/g | 752 | 1 452 nmol/g × min | COc1cc(C=CC(=O)NCc2cccc(CC(N)C(=O)O)c2)ccc1O (stereo not drawn) [derivative 1] | pancreas AUC, times higher in comparison to the original FA [1]: 129.2 times; half-life [1, 9]: 9.9 min; Cmax, u kidney [1]: 9.6 nmol/g; Cmax, u liver [1]: 18.8 nmol/g; Cmax, u pancreas [1]: 47.1 nmol/g; HUVEC morphology at 100 μM (HUVECs): slightly more rounded, bright dead cells were observed; HUVEC morphology at 25–50 μM (HUVECs): did not cause significant changes in HUVEC morphology; AUCtotal plasma of released FA [2]: 507 nmol·min/mL; AUCu, plasma of released FA [2]: 54 nmol·min/mL; Cmax, u plasma of released FA [2]: 0.3 µM; AUCtotal plasma [2]: 1042 nmol·min/mL; tmax plasma [2]: 10 min; peak concentration in plasma [2]: 41.9 µM; Cmax [2]: 41.9 µM; AUCu, plasma [2]: 262 nmol·min/mL; Cmax, u plasma [2]: 10.5 µM
2 | 196 | 66.4 | 253 | 3 368 nmol/g × min | 2 100 nmol/g × min | 8 172 nmol/g × min | 7.27 | 8 | 25.7 | 10 | 4.54 | 13.1 | 12.4 | 10 | 17.6 | 30.6 | 30 | 1 028 nmol/g × min | 496 | 1 226 nmol/g × min | COc1cc(/C=C/C(=O)Nc2cccc(C[C@H](N)C(=O)O)c2)ccc1O [derivative 2] | pancreas AUC, times higher in comparison to the original FA [1]: 203.8 times; half-life [1, 9]: 33.8 min; Cmax, u kidney [1]: 59.8 nmol/g; Cmax, u liver [1]: 15.7 nmol/g; Cmax, u pancreas [1]: 38.0 nmol/g; HUVEC morphology at 50 μM (HUVECs): first brighter cells appearing; HUVEC morphology at 100 μM (HUVECs): reduced the number of viable cells and cell density as well as caused an irregular shape with cytoplasm leakage; AUCtotal plasma of released FA [2]: 75 nmol·min/mL; AUCu, plasma of released FA [2]: 8 nmol·min/mL; Cmax, u plasma of released FA [2]: 0.2 µM; AUCtotal plasma [2]: 463 nmol·min/mL; tmax plasma [2]: 10 (released 10) min; Cmax [2]: 21.1 µM; AUCu, plasma [2]: 40 nmol·min/mL; Cmax, u plasma [2]: 1.8 µM

Row | SMILES | Cmax kidney [1] [nmol/g] | Cmax liver [1] [nmol/g] | Cmax pancreas [1] [nmol/g] | AUCtotal kidney [1] | AUCtotal liver [1] | AUCtotal pancreas [1] | Kp ([1]; kidney, read-out: Kp, kidney) | half-life [1, 3] [min] | Kp,uu (unbound tissue-to-plasma AUC ratio) [1, 4] | Tmax [1, 5] [min] | Kp ([1]; liver, read-out: Kp, liver) | half-life ([1]; liver, read-out: t1/2β, liver) [min] | Kp,uu (unbound tissue-to-plasma AUC ratio) [1, 6] | Tmax [1, 7] [min] | Kp [1, 8] | Kp,uu (unbound tissue-to-plasma AUC ratio) [1, 10] | Tmax [1, 11] [min] | AUCu, kidney [1] | AUCu, liver [1] [nmol·min/g] | AUCu, pancreas [1] | also measured
3 | COc1cc(C=CC(=O)O)ccc1O [ferulic acid, 4-hydroxy-3-methoxycinnamic acid] | 14.4 | 18.0 | 5.4 | 140 nmol·min/g | 408 nmol·min/g | 40.1 nmol·min/g | 0.24 | 3.4 | 2.21 | 10 | 0.69 | 11.2 | 5.5 | 10 | 0.07 | 0.64 | 10 | 139 nmol·min/g | 347 | 40.1 nmol·min/g | Cmax, u kidney [1]: 14.3 nmol/g; Cmax, u liver [1]: 15.3 nmol/g; Cmax, u pancreas [1]: 5.4 nmol/g; HUVEC morphology at 100 μM (HUVECs): more elongated cells were seen; HUVEC morphology at 25–50 μM (HUVECs): did not change cell morphology; AUCtotal plasma [2]: 591 nmol·min/mL; tmax plasma [2]: 10 min; peak concentration in plasma [2]: 33.2 µM; Cmax [2]: 33.2 µM; AUCu, plasma [2]: 63 nmol·min/mL; Cmax, u plasma [2]: 3.6 µM
